From US6518050B1, “Process for producing and extracting aromatic compounds” (Revico, priority 1998, dated 2003) come the findings set out here.

Data set [1] concerns Sporobolomyces odorus. Briefly: Biomass production (OD at 620 nm) of S. odorus cultures on distilling slops with added precursor or additives. It counts as cell-based. As to conditions: for Biomass (OD at 620 nm): culture period of 77 hours; for OD at 620 nm: measured after 77 hours, 0 ml: 8.74; for OD620: HNCH 5 g/vial, culture period of 150 hours. How it is done: During these culture processes, performed in a liquid medium, temperature was held at 24° C. and stirring was at 250 rpm (revolutions per minute).
Time dependency of the amount of biomass produced during cultivation of this yeast, was tracked by measuring the optical density (OD) of the cell suspension at 620 nm. On the spectrophotometer, 0 was obtained with a sample of pure medium (baseline).
In order to test the effect of adding methyl ricinoleate to cultures of S. odorus on distilling slops exclusively, 1 ml of this precursor was added to cellular suspensions of 60 ml of 24 hours of age. […] Indeed, instead of a final concentration, after 77 hours, of 1.02 mg/l on distilling slops or of 6.47 mg/l when castor oil was added, we obtained concentrations of 28.23 mg/l (FIG. 8). […] So it would become rapidly a limiting factor in obtaining free ricinoleic acid from castor oil. Adding directly usable methyl ricinoleate overcomes this problem and lactone production yields are improved.
In order to optimize the added amount of methyl ricinoleate, we produced cultures to which we added after 24 hours either 0.83%, or 1.66%, or 10% (v/v) of methyl ricinoleate.
Additions of RM were performed at instants t=0, 24, 48 and 72 hours. These cultures were produced in 250 ml erlenmeyers containing 5 g of HNCH and 60 ml of sown distilling slops at an initial yeast cell density of 0.2 units of OD620 (optical density measured at 620 nm).
With the aim of increasing the productivity of the system by implementing an in situ extraction of γ-decalactone, two series of tests were conducted; one at an initial cell density of 0.2 (control), the other at an initial cell density of 4.

The test system of data set [2] is Sporobolomyces odorus. As to the kind of experiment: Toxicity of γ-decalactone: yeast growth kinetics on distilling slop medium containing lactone. The format is cell-based. Here is the method:
Time dependency of the amount of biomass produced during cultivation of this yeast, was tracked by measuring the optical density (OD) of the cell suspension at 620 nm. On the spectrophotometer, 0 was obtained with a sample of pure medium (baseline). In order to determine whether γ-decalactone is toxic for cells, yeast growth kinetics on a distilling slop medium containing either 50 mg/l or 250 mg/l of lactone were obtained (FIG. 11). […] Beyond this point, a shift was observed. […] Indeed, the maximum achieved OD was 4 instead of 15 in the control. This same phenomenon was already observed by Ferron and al. (1996) who determined that the compatible dose with a non-zero cell growth rate is between 100 and 200 mg/l. This would partly explain why lactone concentrations of 250 to 300 mg/l were not exceeded under the retained experimental conditions.

Each structure is given as a SMILES string.

With `CCCCCC[C@@H](O)C/C=C\CCCCCCCC(=O)OC` [methyl ricinoleate], the “Biomass (OD at 620 nm)” value with Sporobolomyces odorus [1] (0.06% at t = 0 hrs + 0.83% at t = 24 hrs) was 8.4; with Sporobolomyces odorus [1] (0.83% v/v at t = 24 hrs), 8.0. Moreover, the “OD at 620 nm” value in the data set with Sporobolomyces odorus [1] (0.5 ml RM added to 60 ml culture after 24 hours) was 8.00; in the data set with Sporobolomyces odorus [1] (1 ml RM added to 60 ml culture after 24 hours) it was 7.94; in the data set with Sporobolomyces odorus [1] (6 ml RM added to 60 ml culture after 24 hours), 8.98. Besides, the “biomass, OD” value in the data set with Sporobolomyces odorus [1] (1 ml added to 60 ml cultures of 24 hours of age, after 77 hours, 14.0 on distilling slops exclusively) was determined as 11.06. Also, the OD620 in the data set with Sporobolomyces odorus [1] (4×0.03, 0.06 or 0.12% (v/v) of precursor) is listed as 8; in the data set on Sporobolomyces odorus [1] (4×0.18% (v/v) of precursor), 15.
With `CCCCCCC1CCC(=O)O1` (stereo not shown) [γ-decalactone], in the data set on Sporobolomyces odorus [2] (50 mg/l lactone in distilling slop medium, first 50 hours of culture), the “effect on the yeast's growth” value is recorded as “did not affect the yeast's growth”. Also, the microorganism growth result in the data set with Sporobolomyces odorus [2] (250 mg of lactone in distilling slop medium) is listed as “significantly reduced”. Besides, the “maximum achieved OD” value in the data set on Sporobolomyces odorus [2] (250 mg of lactone, control 15) came out at 4. Besides, the “toxicity exerted on yeast above (concentration)” value with Sporobolomyces odorus [2] (statement in section C 1.1) is “above 150 mg/l”. The “toxic effect observed beyond (concentration)” value in the data set on Sporobolomyces odorus [2] (summary statement of section 6) was more than 250 mg/L.
